According to patent publication US20240209028A1, “CNP COMPOUNDS” (priority 2022, published 2024):
Starred links: 1 amine or outer side, 2 acyl side, 3 side chain; linkers in the order of their positions; H or OH if unused. Positions of bridges follow the written chain, without caps; N, C: chain ends. Residues, ends and D or L forms follow the SMILES beside them. *: point of attachment. C18 diacid = O=C(O)CCCCCCCCCCCCCCCCC(=O)*; γGlu = O=C(O)[C@H](CCC(=O)[*:2])N[*:1]; AEEA = NCCOCCOCC(=O)O

Target: T1, human natriuretic peptide receptor 2 (hNPR2) (Homo sapiens, UniProt P20594)
T1 construct: expressed in transfected cells; host or cells: HEK293 (ATCC CRL-1573), clone 35, co-transfected with pGloSensor-42F
T1 sequence (P20594 23-1047): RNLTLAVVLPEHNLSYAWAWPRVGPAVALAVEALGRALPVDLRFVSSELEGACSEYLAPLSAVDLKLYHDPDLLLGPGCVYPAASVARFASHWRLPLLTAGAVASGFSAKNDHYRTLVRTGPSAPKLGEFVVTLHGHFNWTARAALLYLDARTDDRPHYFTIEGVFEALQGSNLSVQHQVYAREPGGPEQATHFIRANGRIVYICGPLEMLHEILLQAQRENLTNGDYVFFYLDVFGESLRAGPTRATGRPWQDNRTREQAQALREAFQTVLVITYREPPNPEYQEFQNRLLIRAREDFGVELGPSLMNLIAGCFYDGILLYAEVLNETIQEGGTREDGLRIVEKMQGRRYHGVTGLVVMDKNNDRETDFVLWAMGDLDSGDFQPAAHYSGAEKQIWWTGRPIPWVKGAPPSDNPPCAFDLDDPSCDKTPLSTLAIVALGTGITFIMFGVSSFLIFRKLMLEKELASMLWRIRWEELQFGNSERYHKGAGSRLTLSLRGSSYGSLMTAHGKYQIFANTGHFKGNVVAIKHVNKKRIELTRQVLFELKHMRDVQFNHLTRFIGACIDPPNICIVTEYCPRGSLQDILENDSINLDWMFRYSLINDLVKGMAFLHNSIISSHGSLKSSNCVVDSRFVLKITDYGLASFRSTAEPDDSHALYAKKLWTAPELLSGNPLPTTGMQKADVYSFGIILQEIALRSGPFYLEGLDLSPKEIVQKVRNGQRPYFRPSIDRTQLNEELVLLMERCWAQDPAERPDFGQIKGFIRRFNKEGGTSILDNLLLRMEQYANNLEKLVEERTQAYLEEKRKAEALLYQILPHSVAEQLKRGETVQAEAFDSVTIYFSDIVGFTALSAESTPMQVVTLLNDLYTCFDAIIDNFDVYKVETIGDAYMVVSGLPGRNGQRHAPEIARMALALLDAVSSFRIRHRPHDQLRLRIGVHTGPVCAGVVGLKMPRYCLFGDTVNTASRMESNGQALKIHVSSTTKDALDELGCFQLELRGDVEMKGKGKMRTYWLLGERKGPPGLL
Assay: In vitro hNPR2 activity assay (cGMP GloSensor reporter, HEK293)
Assay type: cell-based
Conditions: for hNPR2 0% HSA. [EC50% rel CNP]: potency relative to CNP22 (0065)
Method in brief: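 Potency is the EC50 from a four-parameter logistic fit, also expressed relative to the in-plate CNP22 control (×100), with at least two replicates. Compounds (ten concentrations, […], HSA-free diluent with 1% OVA, 0.01% Tween20) were incubated 30 min at 37 °C on HEK293 cells co-expressing hNPR2 and a GloSensor cGMP luciferase. Luminescence detected with Bright-Glo.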

Compound | EC50 (0% HSA, HEK293-hNPR2/GloSensor cells) [nM] | hNPR2 0% HSA. [EC50% rel CNP] [%]
CC[C@H](C)[C@@H]1NC(=O)[C@H](CCCNC(=N)N)NC(=O)[C@H](CC(=O)O)NC(=O)[C@H](CC(C)C)NC(=O)[C@H](CCCCN)NC(=O)[C@H](CC(C)C)NC(=O)CNC(=O)[C@H](Cc2ccccc2)NC(=O)[C@@H](NC(=O)CNC(=O)[C@H](CCCCN)NC(=O)[C@H](CO)NC(=O)[C@H](CC(C)C)NC(=O)CNC(=O)[C@H](Cc2c[nH]cn2)NC(=O)[C@H](Cc2c[nH]cn2)NC(=O)[C@H](CCC(N)=O)NC(=O)[C@H](C)NC(=O)CNC(=O)[C@H](Cc2c[nH]cn2)NC(=O)[C@H](Cc2ccc(O)cc2)NC(=O)COCCOCCNC(=O)COCCOCCNC(=O)CC[C@H](NC(=O)CCCCCCCCCCCCCCCCC(=O)O)C(=O)O)CSSC[C@@H](C(=O)O)NC(=O)CNC(=O)[C@H](CC(C)C)NC(=O)CNC(=O)[C@H](CO)NC(=O)[C@H](CC(C)C)NC(=O)[C@H](CO)NC(=O)CNC1=O [compound 1345] ({C18 diacid-γGlu-AEEA-AEEA}-YHGAQHHGLSKGCFGLKLDRIGSLSGLGC-OH; disulfide 13-29) | 0.38 | 21.1
CC[C@H](C)[C@@H]1NC(=O)[C@H](CCCNC(=N)N)NC(=O)[C@H](CC(=O)O)NC(=O)[C@H](CC(C)C)NC(=O)[C@@H]2CCCN2C(=O)[C@H](CC(C)C)NC(=O)CNC(=O)[C@H](Cc2ccccc2)NC(=O)[C@@H](NC(=O)CNC(=O)[C@H](CCCCN)NC(=O)[C@H](CO)NC(=O)[C@H](CC(C)C)NC(=O)CNC(=O)[C@H](Cc2c[nH]cn2)NC(=O)[C@H](Cc2c[nH]cn2)NC(=O)[C@H](CCC(N)=O)NC(=O)[C@H](C)NC(=O)CNC(=O)[C@H](Cc2c[nH]cn2)NC(=O)[C@H](Cc2ccc(O)cc2)NC(=O)COCCOCCNC(=O)COCCOCCNC(=O)CC[C@H](NC(=O)CCCCCCCCCCCCCCCCC(=O)O)C(=O)O)CSSC[C@@H](C(=O)O)NC(=O)CNC(=O)[C@H](CC(C)C)NC(=O)CNC(=O)[C@H](CO)NC(=O)[C@H](CC(C)C)NC(=O)[C@H](CO)NC(=O)CNC1=O [compound 1346] ({C18 diacid-γGlu-AEEA-AEEA}-YHGAQHHGLSKGCFGLPLDRIGSLSGLGC-OH; disulfide 13-29; C-terminus assumed) | – | 17.0
CC[C@H](C)[C@@H]1NC(=O)[C@H](CCCNC(=N)N)NC(=O)[C@H](CC(=O)O)NC(=O)[C@H](CC(C)C)NC(=O)[C@@H]2CCCN2C(=O)[C@H](CC(C)C)NC(=O)CNC(=O)[C@H](Cc2ccccc2)NC(=O)[C@@H](NC(=O)CNC(=O)[C@H](Cc2c[nH]cn2)NC(=O)[C@H](CO)NC(=O)[C@H](CC(C)C)NC(=O)CNC(=O)[C@H](CCCCN)NC(=O)[C@H](CCCCN)NC(=O)[C@H](CCC(N)=O)NC(=O)[C@H](C)NC(=O)CNC(=O)COCCOCCNC(=O)COCCOCCNC(=O)CC[C@H](NC(=O)CCCCCCCCCCCCCCCCC(=O)O)C(=O)O)CSSC[C@@H](C(=O)O)NC(=O)CNC(=O)[C@H](CC(C)C)NC(=O)CNC(=O)[C@H](CO)NC(=O)[C@H](CC(C)C)NC(=O)[C@H](CO)NC(=O)CNC1=O [compound 1347] ({C18 diacid-γGlu-AEEA-AEEA}-GAQKKGLSHGCFGLPLDRIGSLSGLGC-OH; disulfide 11-27; C-terminus assumed) | – | 15.4
CC[C@H](C)[C@@H]1NC(=O)[C@H](CCCNC(=N)N)NC(=O)[C@H](CC(=O)O)NC(=O)[C@H](CC(C)C)NC(=O)[C@@H]2CCCN2C(=O)[C@H](CC(C)C)NC(=O)CNC(=O)[C@H](Cc2ccccc2)NC(=O)[C@@H](NC(=O)CNC(=O)[C@H](CO)NC(=O)[C@H](Cc2c[nH]cn2)NC(=O)[C@H](CC(C)C)NC(=O)CNC(=O)[C@H](CCCCN)NC(=O)[C@H](CCCCN)NC(=O)[C@H](CCC(N)=O)NC(=O)[C@H](C)NC(=O)CNC(=O)COCCOCCNC(=O)COCCOCCNC(=O)CC[C@H](NC(=O)CCCCCCCCCCCCCCCCC(=O)O)C(=O)O)CSSC[C@@H](C(=O)O)NC(=O)CNC(=O)[C@H](CC(C)C)NC(=O)CNC(=O)[C@H](CO)NC(=O)[C@H](CC(C)C)NC(=O)[C@H](CO)NC(=O)CNC1=O [compound 1348] ({C18 diacid-γGlu-AEEA-AEEA}-GAQKKGLHSGCFGLPLDRIGSLSGLGC-OH; disulfide 11-27) | – | 31.4
